Data reported in PMC11269933, “MAPK/ERK-PK(Ser11) pathway regulates divergent thermal metabolism of two congeneric oyster species” (iScience, 2024).

Columns and labels:
[1] = target: T1, CgPK (Magallana gigas, UniProt Z9A5V8HWU5); assay: SPR (BIAcore T200, CM5 chip, anti-His capture), […] Langmuir fit; type: binding; details: PBS-P+ analyte buffer, running buffer HBS-EP+ pH 7.5, recombinant from E. coli
T1 construct: full-length CDS in pET-32a, 6xHis tags at N- and C-ends, expressed in E. coli; captured on CM5 chip by anti-His antibody

[2] = target: T1, CgPK; assay: as above; type: binding; details: PBS-P+ analyte buffer, running buffer HBS-EP+ pH 7.5, mimics dephosphorylation

| Kd ([1]; ADP 1.25-10 uM) [nM] | Kd ([2]; ADP 1.25-10 uM) [nM] | Kd ([1]; PEP 100-1600 nM) [nM] | Kd ([2]; PEP 100-1600 nM) [nM] | SMILES |
| --- | --- | --- | --- | --- |
| 41.7 | 72.5 | – | – | Nc1ncnc2c1ncn2[C@@H]1O[C@H](COP(=O)(O)OP(=O)(O)O)[C@@H](O)[C@H]1O [ADP] |
| – | – | 9.75 | 93.4 | C=C(OP(=O)(O)O)C(=O)O [PEP] |
